# Measured values published in US20230416330A1, “Optimized GIP Peptide Analogues” (Antag Therapeutics ApS, priority 2019, published 2023).
# Starred links: 1 amine or outer side, 2 acyl side, 3 side chain; linkers in the order of their positions; H or OH if unused. Non-standard residues stand in square brackets, D forms with d. Residues, ends and D or L forms follow the SMILES beside them. Groups on a side chain read outwards from the residue. *: point of attachment. C18 diacid = O=C(O)CCCCCCCCCCCCCCCCC(=O)*; C16 diacid = O=C(O)CCCCCCCCCCCCCCC(=O)*; γGlu = O=C(O)[C@H](CCC(=O)[*:2])N[*:1]; Glutaryl = O=C(CCCC(=O)[*:2])[*:1]; Nle = CCCC[C@H](N)C(=O)O; AEEA = NCCOCCOCC(=O)O; Aib = CC(C)(N)C(=O)O
# Legend:
# [1] = Physical stability: fibril formation in Thioflavin T (ThT) assay with agitation; assay type: physicochemical; settings: for Avr lag time / Avr lag time (h): 25° C., agitation
# Method: Continuous measurement of the fluorescence emission at 486 nm can be used as a measure of fibrillation behavior of peptides and proteins. The time until onset of fibrillation or fibrillation lag time is estimated here by defining the lag time (Tlag) as the point in time where the signal relative to the pre-transition baseline has reached 10% of the post-transition baseline.
# 50 mM sodium phosphate buffer for dissolving some samples was prepared in ultrapure water (Milli-Q® Reference A+ System, Merck) with a resistivity of 18.2 MΩ·cm. The buffer was adjusted to pH 7.4 and filtered.
# The ultrapure water (MilliQ) for dissolving some samples was adjusted to pH 7.4 with NaOH and filtered prior to sample preparation.
# (§1) Peptides were either dissolved in sodium phosphate buffer (50 mM, pH 7.4, filtered) or dissolved in ultrapure (MilliQ) water (adjusted to pH 7.4 with NaOH, filtered) (see Table 3). All peptide samples were prepared to a concentration of 1, 5, 7.5 or 15 mg/ml. All samples, with the exception of reference peptides GIP(3-30), AT158, and AT482 dissolved readily and produced clear and colorless solutions with gentle mixing. Peptide samples were subsequently filtered through 0.22 μm nylon filters (Q-Max® RR syringe filter, 13 mm, Frisenette, DK) to produce particle-free solutions. All samples were added to a 96-well plate reader for the ThT assay at t=0.
# For each sample, […] ThT (1 mM) was added to 1.2 mL peptide solution. From this sample mixture, an amount of 200 uL/well was pipetted into four or five wells (n=4 or 5). Blank samples (buffer+ThT) were also included. One 3 mm silica bead was added to each well containing samples and the plate was subjected to orbital rotation at 300 rpm to agitate and stress the samples. The temperature was kept at 25° C. throughout the measurement.
# [2] = Solubility by visual inspection of peptide solutions; assay type: physicochemical
# Method: as §1
# Clear visual appearance may be taken as an indicator of the immediate solubility of the peptide. […] Thus, A13Aib and/or N24E substitutions appear to increase solubility.
compound,measurement,setting,value
"CC[C@H](C)[C@H](NC(=O)[C@H](CO)NC(=O)[C@H](Cc1ccc(O)cc1)NC(=O)[C@H](CC(=O)O)NC(=O)[C@H](CO)NC(=O)[C@@H](NC(=O)[C@H](Cc1ccccc1)NC(=O)[C@@H](NC(=O)CNC(=O)[C@@H](N)CCC(=O)O)[C@@H](C)O)[C@@H](C)CC)C(=O)N[C@@H](C)C(=O)N[C@@H](CCSC)C(=O)N[C@@H](CC(=O)O)C(=O)N[C@@H](CCCCN)C(=O)N[C@H](C(=O)N[C@@H](CCCCNC(=O)CCCCCCCCCCCCCCC(=O)O)C(=O)N[C@@H](CCC(N)=O)C(=O)N[C@@H](CCC(N)=O)C(=O)N[C@@H](CC(=O)O)C(=O)N[C@@H](Cc1ccccc1)C(=O)N[C@H](C(=O)N[C@@H](CC(N)=O)C(=O)N[C@@H](Cc1c[nH]c2ccccc12)C(=O)N[C@@H](CC(C)C)C(=O)N[C@@H](CC(C)C)C(=O)N[C@@H](C)C(=O)N[C@@H](CCC(N)=O)C(=O)N[C@@H](CCCCN)C(=O)N1CCC[C@H]1C(=O)N[C@@H](CO)C(=O)N[C@@H](CO)C(=O)NCC(=O)N[C@@H](C)C(=O)N1CCC[C@H]1C(=O)N1CCC[C@H]1C(=O)N1CCC[C@H]1C(=O)N[C@@H](CO)C(=O)O)C(C)C)[C@@H](C)CC [AT364, GIP(3-30) [H18K] C16diacid+Cex(31-39), reference compound] (H-EGTFISDYSIAMDKIK(C16 diacid)QQDFVNWLLAQKPSSGAPPPS-OH; N-terminus assumed)",Avr lag time,"[1]; 1 mg/ml, TFA, Phosphate (7.4)",<18 h
same,Avr lag time,"[1]; 5 mg/ml, Na, MilliQ",20 to 50 h
same,Avr lag time,"[1]; 5 mg/ml, TFA, MilliQ (8)",<18 h
same,Avr lag time,"[1]; 5 mg/ml, TFA, Phosphate",<18 h
same,Fibril formation (FIG. 1),"[1]; in phosphate buffer, about 94 h, orbital rotation",forms fibrils
same,Visual appearance,"[2]; 1 mg/ml, CI, Phosphate (7.4)",Clear
same,Visual appearance,"[2]; 1 mg/ml, Na, MilliQ",Clear
same,Visual appearance,"[2]; 1 mg/ml, TFA, Phosphate (7.4)",Clear
same,Visual appearance,"[2]; 5 mg/ml, Na, MilliQ",Clear
same,Visual appearance,"[2]; 5 mg/ml, TFA, MilliQ (8)",Clear
same,Visual appearance,"[2]; 5 mg/ml, TFA, Phosphate",Clear
same,Visual appearance,"[2]; 7.5 mg/ml, Na, MilliQ (8)",Clear
same,Visual appearance,"[2]; 15 mg/ml, Na, MilliQ (8)",Clear
CCCC[C@H](NC(=O)C(C)(C)NC(=O)[C@@H](NC(=O)[C@H](CO)NC(=O)[C@H](Cc1ccc(O)cc1)NC(=O)[C@H](CCC(=O)O)NC(=O)[C@H](CO)NC(=O)[C@@H](NC(=O)[C@H](Cc1ccccc1)NC(=O)[C@@H](NC(=O)CNC(=O)CCCC(=O)O)[C@@H](C)O)[C@@H](C)CC)[C@@H](C)CC)C(=O)N[C@@H](CCC(=O)O)C(=O)N[C@@H](CCCCN)C(=O)N[C@H](C(=O)N[C@@H](CCCCNC(=O)COCCOCCNC(=O)COCCOCCNC(=O)CC[C@H](NC(=O)CCCCCCCCCCCCCCCCC(=O)O)C(=O)O)C(=O)N[C@@H](CCC(N)=O)C(=O)N[C@@H](CCC(N)=O)C(=O)N[C@@H](CCC(=O)O)C(=O)N[C@@H](Cc1ccccc1)C(=O)N[C@H](C(=O)N[C@@H](CCC(=O)O)C(=O)N[C@@H](Cc1c[nH]c2ccccc12)C(=O)N[C@@H](CC(C)C)C(=O)N[C@@H](CC(C)C)C(=O)N[C@@H](C)C(=O)N[C@@H](CCC(N)=O)C(=O)N[C@@H](CCCCN)C(=O)N1CCC[C@H]1C(=O)N[C@@H](CO)C(=O)N[C@@H](CO)C(=O)NCC(=O)N[C@@H](C)C(=O)N1CCC[C@H]1C(=O)N1CCC[C@H]1C(=O)N1CCC[C@H]1C(=O)N[C@@H](CO)C(=O)O)C(C)C)[C@@H](C)CC [AT706] (Glutaryl-GTFISEYSI[Aib][Nle]EKIK([AEEA-AEEA-γGlu-C18 diacid])QQEFVEWLLAQKPSSGAPPPS-OH),Avr lag time (h),"[1]; 1 mg/ml, TFA, Phosphate (7.4)",fnd (Fnd = fibrils not detected within experiment time (96 hours) with agitation.)
same,Avr lag time (h),"[1]; 7.5 mg/ml, Na, MilliQ (8)",fnd (Fnd = fibrils not detected within experiment time (96 hours) with agitation.)
same,Avr lag time (h),"[1]; 15 mg/ml, Na, MilliQ (8)",fnd (Fnd = fibrils not detected within experiment time (96 hours) with agitation.)
same,Visual appearance,"[2]; 1 mg/ml, TFA, Phosphate (7.4)",Clear
same,Visual appearance,"[2]; 7.5 mg/ml, Na, MilliQ (8)",Clear
same,Visual appearance,"[2]; 15 mg/ml, Na, MilliQ (8)",Clear
CC[C@H](C)[C@H](NC(=O)[C@H](CCCCN)NC(=O)[C@H](CC(=O)O)NC(=O)[C@H](CC(C)C)NC(=O)C(C)(C)NC(=O)[C@@H](NC(=O)[C@H](CO)NC(=O)[C@H](Cc1ccc(O)cc1)NC(=O)[C@H](CCC(=O)O)NC(=O)[C@H](CO)NC(=O)[C@@H](NC(=O)[C@H](Cc1ccccc1)NC(=O)[C@@H](NC(=O)CNC(=O)[C@@H](N)CCC(=O)O)[C@@H](C)O)[C@@H](C)CC)[C@@H](C)CC)C(=O)N[C@@H](CCCCNC(=O)COCCOCCNC(=O)COCCOCCNC(=O)CC[C@H](NC(=O)CCCCCCCCCCCCCCCCC(=O)O)C(=O)O)C(=O)N[C@@H](CCC(N)=O)C(=O)N[C@@H](CCC(N)=O)C(=O)N[C@@H](CC(=O)O)C(=O)N[C@@H](Cc1ccccc1)C(=O)N[C@H](C(=O)N[C@@H](CCC(=O)O)C(=O)N[C@@H](Cc1c[nH]c2ccccc12)C(=O)N[C@@H](CC(C)C)C(=O)N[C@@H](CC(C)C)C(=O)N[C@@H](C)C(=O)N[C@@H](CCC(N)=O)C(=O)N[C@@H](CCCCN)C(=O)N1CCC[C@H]1C(=O)N[C@@H](CO)C(=O)N[C@@H](CO)C(=O)NCC(=O)N[C@@H](C)C(=O)N1CCC[C@H]1C(=O)N1CCC[C@H]1C(=O)N1CCC[C@H]1C(=O)N[C@@H](CO)C(=O)O)C(C)C [AT712] (H-EGTFISEYSI[Aib]LDKIK([AEEA-AEEA-γGlu-C18 diacid])QQDFVEWLLAQKPSSGAPPPS-OH; N-terminus assumed),Avr lag time (h),"[1]; 1 mg/ml, TFA, Phosphate (7.4)",fnd (Fnd = fibrils not detected within experiment time (96 hours) with agitation.)
same,Visual appearance,"[2]; 1 mg/ml, TFA, Phosphate (7.4)",Clear
CC[C@H](C)[C@H](NC(=O)[C@H](CCCCN)NC(=O)[C@H](CCC(=O)O)NC(=O)[C@H](CC(C)C)NC(=O)C(C)(C)NC(=O)[C@@H](NC(=O)[C@H](CO)NC(=O)[C@H](Cc1ccc(O)cc1)NC(=O)[C@H](CCC(=O)O)NC(=O)[C@H](CO)NC(=O)[C@@H](NC(=O)[C@H](Cc1ccccc1)NC(=O)[C@@H](NC(=O)CNC(=O)[C@@H](N)CCC(=O)O)[C@@H](C)O)[C@@H](C)CC)[C@@H](C)CC)C(=O)N[C@@H](CCCCNC(=O)COCCOCCNC(=O)COCCOCCNC(=O)CC[C@H](NC(=O)CCCCCCCCCCCCCCCCC(=O)O)C(=O)O)C(=O)N[C@@H](CCC(N)=O)C(=O)N[C@@H](CCC(N)=O)C(=O)N[C@@H](CCC(=O)O)C(=O)N[C@@H](Cc1ccccc1)C(=O)N[C@H](C(=O)N[C@@H](CCC(=O)O)C(=O)N[C@@H](Cc1c[nH]c2ccccc12)C(=O)N[C@@H](CC(C)C)C(=O)N[C@@H](CC(C)C)C(=O)N[C@@H](C)C(=O)N[C@@H](CCC(N)=O)C(=O)N[C@@H](CCCCN)C(=O)N1CCC[C@H]1C(=O)N[C@@H](CO)C(=O)N[C@@H](CO)C(=O)NCC(=O)N[C@@H](C)C(=O)N1CCC[C@H]1C(=O)N1CCC[C@H]1C(=O)N1CCC[C@H]1C(=O)N[C@@H](CO)C(N)=O)C(C)C [AT714] (H-EGTFISEYSI[Aib]LEKIK([AEEA-AEEA-γGlu-C18 diacid])QQEFVEWLLAQKPSSGAPPPS-NH2; N-terminus assumed),Avr lag time (h),"[1]; 1 mg/ml, TFA, Phosphate (7.4)",fnd (Fnd = fibrils not detected within experiment time (96 hours) with agitation.)
same,Visual appearance,"[2]; 1 mg/ml, TFA, Phosphate (7.4)",Clear
